Reference: publication PMC4148180 (Neurobiology of Disease, 2014)

How the values were obtained:
P2Y12 receptor (P2Y12R) [1] = molecular target: T1, P2Y12 receptor (P2Y12R) (Homo sapiens, UniProt Q9H244); test: cAMP accumulation assay, rightward shift of 2-methylthio-ADP curve; type: cell-based
P2Y12 receptor (P2Y12R) [2] = molecular target: T1, P2Y12 receptor (P2Y12R); test: inhibition of forskolin-induced cAMP formation; type: cell-based

T1 sequence (Q9H244 whole entry): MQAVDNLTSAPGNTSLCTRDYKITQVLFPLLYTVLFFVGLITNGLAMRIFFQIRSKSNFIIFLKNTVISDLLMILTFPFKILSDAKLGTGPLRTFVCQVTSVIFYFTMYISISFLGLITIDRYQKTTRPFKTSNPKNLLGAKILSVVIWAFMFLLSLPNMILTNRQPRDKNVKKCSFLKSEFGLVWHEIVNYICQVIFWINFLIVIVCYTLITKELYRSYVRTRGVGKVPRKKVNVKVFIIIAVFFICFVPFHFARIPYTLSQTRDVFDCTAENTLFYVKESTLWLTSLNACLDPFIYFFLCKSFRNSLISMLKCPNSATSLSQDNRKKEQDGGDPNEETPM

`Nc1c(S(=O)(=O)O)cc(Nc2ccc(Nc3ccccc3)c(S(=O)(=O)O)c2)c2c1C(=O)c1ccccc1C2=O` [PSB-0739] was tested, and the Kb (P2Y12 receptor (P2Y12R) [1]) was 0.0794 nM.
Work on `CSc1nc(N)c2ncn([C@@H]3O[C@H](COP(=O)(O)OP(=O)(O)O)[C@@H](O)[C@H]3O)c2n1` [2-methylthio-ADP] yielded an EC50 (P2Y12 receptor (P2Y12R) [2]) of 0.26 nM.
